The values that follow come from patent US20050208197A1, “Refreshment capable of stimulating movement of digestive tract” (priority 2002, published 2005).

For one data set, the system named is stomach emptying in mice. Put plainly: Stomach emptying in mice (phenol red test feed). It is filed as in vivo. The conditions noted are these: oral, dose-dependent, P<0.05 vs distilled water, FIG. 15. How it is done:
Using a stomach tube, ddY line mice (10 animals in each group) were orally administered each of distilled water, the active substances α and β following an 18-hour fasting period. 60 minutes after administration, each animal was orally administered a test feed (0.2 mL/animal; 1.5% methylcellulose solution containing 0.05% phenol red) using the same technique. After 15 minutes, the animals were sacrificed by cervical dislocation and the stomachs were removed. The stomachs, along with their contents, were then homogenized in 10 mL 0.1N NaOH and the homogenates were allowed to stand for 1 hour at room temperature. To 1 mL of the resulting supernatant, 0.1 mL 20% trichloroacetic acid was added and the supernatant was centrifuged to precipitate proteins. Subsequently, 0.5 ml of the resulting supernatant was collected and 0.5 mL 0.5N NaOH was added to color the solution. The absorbance of the solution at 560 nm was measured to determine the amount of phenol red remaining in the stomach. The rate of stomach emptying was determined by the following equation: Stomach emptying rate (%)=(A−B)/A×100 where ‘A’ is the amount of phenol red in the stomach immediately after the administration of the test feed; and ‘B’ is the amount of phenol red remaining in the stomach 15 minutes after the administration of the test feed. 2. Results

Data set [1] in a line: Water solubility of the isolated active substances. In kind it is physicochemical. An excerpt:
In another aspect, the present invention provides a method for separating/purifying the active substances α and β. Specifically, the method includes freeze-drying beer, which serves as the starting material, to remove volatile components and collect non-volatile components; subjecting the non-volatile components to a chromatography using synthetic absorbent to remove unadsorbed components and collect adsorbed components in a crude fraction containing concentrated active substances; subjecting the crude fraction to a weakly acidic cation exchange chromatography to remove unadsorved components; eluting the active substances with acidic methanol (methanol/hydrochloric acid); subjecting the eluate to gel filtration chromatography using 0.01N hydrochloric acid to obtain a purified fraction; subjecting the purified fraction to C18 high performance liquid chromatography (ODS-HPLC) for further purification to isolate the two active substances. The active substances so obtained were water-soluble.

Data set [2] addresses T1, human muscarinic M3 receptors (Homo sapiens, UniProt P20309).
T1 construct: expressed in transfected cells; host or cells: CHO (Chinese hamster ovary) cells, membrane preparation
As to the kind of experiment: Test for binding activity to muscarinic M3 receptors ([3H]4-DAMP displacement). How it is done: The mixture was then incubated at 22° C. for 60 min. Subsequently, the reaction mixture was filtered through a glass fiber filter (GF/B, PACKARD) while aspirated. Once the reaction came to an end, the mixture was washed several times with ice-chilled buffer. A scintillation cocktail (Microscint O, PACKARD) was then added to the filter, and the residual radioactivity was measured by a liquid scintillation counter (Topcount, PACKARD).

T1 sequence (P20309 whole entry): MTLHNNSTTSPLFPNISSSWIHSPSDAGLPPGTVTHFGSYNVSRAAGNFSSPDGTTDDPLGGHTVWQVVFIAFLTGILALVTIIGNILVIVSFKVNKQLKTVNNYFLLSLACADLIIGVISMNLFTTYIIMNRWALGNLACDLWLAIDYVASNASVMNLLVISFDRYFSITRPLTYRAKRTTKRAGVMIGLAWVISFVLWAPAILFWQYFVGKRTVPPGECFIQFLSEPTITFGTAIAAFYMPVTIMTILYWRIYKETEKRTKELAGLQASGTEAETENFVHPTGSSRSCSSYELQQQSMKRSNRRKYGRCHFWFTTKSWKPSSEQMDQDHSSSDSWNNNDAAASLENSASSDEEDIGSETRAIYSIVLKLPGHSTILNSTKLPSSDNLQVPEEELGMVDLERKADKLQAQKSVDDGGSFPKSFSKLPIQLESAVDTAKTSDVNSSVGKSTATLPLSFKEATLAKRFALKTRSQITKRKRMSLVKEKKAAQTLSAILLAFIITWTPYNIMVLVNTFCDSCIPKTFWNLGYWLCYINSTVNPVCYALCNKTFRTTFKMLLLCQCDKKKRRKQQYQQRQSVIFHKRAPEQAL

One may read the IC50 as the concentration that inhibits the measured activity by half. A lower IC50 goes with inhibition by little substance. With `N=C(N)NCCCCNC(=O)/C=C/c1ccc2c(c1)[C@H](C(=O)NCCCCNC(=N)N)[C@H](c1ccc(O)cc1)O2` [active substance α], the “stimulation of stomach emptying” value in the data set on stomach emptying in mice (0.1 and 0.3 mg/kg) is listed as “significantly stimulated stomach emptying”. Also, the solubility in water result in data set [1] is recorded as “water-soluble”. Besides, the IC50 in data set [2] is 1180 nM.
In the case of `N=C(N)NCCCCNC(=O)/C=C/c1ccc2c(c1)[C@@H](C(=O)NCCCCNC(=N)N)[C@H](c1ccc(O)cc1)O2` [active substance β], in the data set on stomach emptying in mice (0.3 and 1.0 mg/kg), the “stimulation of stomach emptying” value is recorded as “significantly stimulated stomach emptying”. In data set [1], the solubility in water result is “water-soluble”. The same compound had an IC50 in data set [2] of 4180 nM.
